Data: patent publication US20260137696A1, “Compositions Comprising an Inhibitor of Galectin-3” (University of Liverpool, priority 2023, published 2026)

Assays:
Type in all cases: cell-based, human
[1] = test system: HUVECs; test: Vascular cell tubule formation (angiogenesis); details: different concentrations
Method: Vascular cell tubule formation was assessed with HUVECs in the absence or presence of different concentrations of the compounds of Formula I or Formula II.
Matrigel matrix (50 μl) was added to 96-well plates for 60 min at 37° C. to allow gel formation. HUVEC cells (1×10^5 cells/ml in 1:1 EGM/EBM2 media) was introduced to the plates without or with Galectin-3 (2 μg/ml) or different concentrations of compound inhibitors for 24 hr at 37° C. Endothelial cell tube formation was examined with Leica DMLA Laser Microscope. The total number of branching points and the sum of the lengths of tubes were calculated.

[2] = test system: SW620^Gal3+ cells; test: Cancer cell adhesion to HUVECs; details: 10 μM; Galectin-3-expressing SW620^Gal3+ cells
Method: Adhesion of human colon cancer SW620 cells to human umbilical vein endothelial cells (HUVECs) was assessed in the absence or presence of the compounds of Formula I and Formula II (10 μM). […] (N=2, n=2);
Adhesion of human colon cancer SW620 cells to human umbilical vein endothelial cells (HUVECs) was assessed in the absence or presence of the compounds of Formula I and Formula II (10 μM).
HUVECs (1.5×10^5 cells/ml) were seeded into 96-well plates in complete EBM-2 medium and incubated at 37° C. 5% CO2 for 48-72 hours until a monolayer was formed. Monolayer integrity was confirmed by measuring trans-endothelial electrical resistance (TEER) using a Volt Ohm Meter and only monolayers with TEER reading over 800 Ω/cm^2 were used for the assay. ZsGreen- and luciferase-transfected SW620Gal3+, SW620Gal3− or ACA19+ cells (5×10^5 cells/ml) was then added to the HUVECs without or with 10 μM of the compound of Formula I or the compound of Formula II for 30-35 min at 37° C. The cells were washed twice with PBS before lysed with PLB. The cell lysates were transferred into new wells of white-walled 96-well plates and Luciferase Assay Reagent was added. The wells were mixed well and luminescence was measured using Infinite F200 Microplate reader. The experiment was performed three times, each time in triplicates.

[3] = test system: SW620 cells; test: Cancer cell invasion through HUVECs (transwell); details: 10 μM, transwells
Method: Invasion of human colon cancer SW620 cells through human umbilical vein endothelial cells (HUVECs) was assessed in transwells in the absence or presence of the compounds of Formula I and Formula II (10 μM).
HUVECs were seeded (1.5×10^4 cells/well) into trans-well insert in 24-well plate and cultured for three days to allow tight monolayer formation (TEER reading >800 Ω/cm2). The integrity of HUVEC monolayer was confirmed by measuring TEER and only monolayers with TEER reading >800 Ω/cm^2 were used for the invasion assay. The HUVEC monolayers were washed with PBS before introduction of ZsGreen- and luciferase transfected SW620Gal3+, SW620Gal-3, or ACA19+ cells (5×10^5 cells/ml) in serum-free DMEM with 0.5 mg/ml BSA, without or with 10 μM the compound of Formula I or the compound of Formula II. ZsGreen- and luciferase-labelled SW620Gal3− and SW620Gal3+ cells (5×10^5 cells/ml) were mixed without or with 10 μM inhibitors for 15 minutes before introduced to the HUVEC monolayer in the transwells for 16-18 hours. The cells at the upper side of the trans-well inserts were gently removed with a cotton swab and the inserts were washed twice with PBS. The cells that migrated to the bottom side of the trans-wells were lysed with PLB buffer for 10 min. The lyse was introduced with Luciferase Assay Reagent for 5 min before luminescence was measured. […]

[4] = test system: galectin-3 knockout (Gal3KO) MDA-MB-231 cells; test: Triple-negative breast cancer cell adhesion to basement matrix, galectin-3 knockout; details: galectin-3 knockout by CRISPR/Cas9 (FIG. 15C, 15D)
Method: (§1) Nanty-six well plates were coated with 50 μl Matrigel (1:30 diluted in PBS) at 37° C. for 1 hour. Cancer cells, pre-labelled with fluorescent die DiI at 37° C. for 20 minutes, were washed twice with PBS and resuspended into 3×10^4 cells/ml in serum-free medium. The matrix-coated 96-well plates were washed twice with PBS before introduction of […] cell suspension with different concentrations of the inhibitors or PBS/DMSO (control) for 1 hour at 37° C. The plates were washed twice with PBS before three randomly selected Field of Views (FOVs) were recorded by fluorescence microscope and number of adhesion cells were quantified by Image J.
MDAMB-231 or PANC-1 cells were seeded into 6-well plate (2×10^5 cells) and cultured at 37° C. for 24 hour. Galectin-3 CRISPR Cas9 Knockout plasmid (2 μg) and galectin-3 HDR plasmid (2 μg) was mixed with Plasmid Transfection Medium (21 μl) for 5 minutes before addition to a mixture of lipofectamine STEM Transfection Reagent (STEM00001) (1 μl) and Plasmid Transfection Medium (25 μl) for 10 minutes at room temperature. The cells in the 6-well plates were washed and introduced with the Plasmid DNA/Lipofectamine STEM Transfection Reagent complex at 37° C. for 24 hours. […] Successful co-transfection of the CRISPR/Cas9 KO Plasmid and HDR Plasmid was confirmed by expression of red fluorescence protein of the cells. […]

[5] = test system: H1975 cell; test: Lung cancer cell adhesion to basement matrix; details: for IC50: Homo sapiens, NCI-H1975; for H1975 cell adhesion to matrix: different concentrations
Method: as §1

With `C[C@H]1COc2c(N3CCN(C)CC3)c(F)cc3c(=O)c(C(=O)NNc4cccc(N)c4)cn1c23` [Formula II] the “HUVEC tubule formation, tubule numbers” value [1] was “dose-dependently inhibition”, the “HUVEC tubule formation, vascular tubule length” value [1] was “dose-dependently inhibition” and the “adhesion to HUVEC” value [2] was “significantly inhibits”. For the same molecule, the “SW620 cell invasion through HUVECs” value [3] was “significant inhibits”, the “adhesion of Gal3KO MDA-MB-231 cells” value [4] was “lost their inhibitory effect” and the IC50 [5] was ~10 µM. The “H1975 cell adhesion to matrix” value [5] was “dose-dependently inhibits”.
In the case of `C[C@H]1COc2c(N3CCN(C)CC3)c(F)cc3c(=O)c(C(=O)NNc4ccc(N)cc4)cn1c23` [Formula I], the “HUVEC tubule formation, tubule numbers” value [1] is reported as “dose-dependently inhibition”, the “HUVEC tubule formation, vascular tubule length” value [1] is reported as “dose-dependently inhibition” and the “adhesion to HUVEC” value [2] is reported as “significantly inhibits”. For the same molecule, the “SW620 cell invasion through HUVECs” value [3] was “significant inhibits”, the “adhesion of Gal3KO MDA-MB-231 cells” value [4] was “lost their inhibitory effect” and the IC50 [5] was > 20 µM. For the same molecule, the “H1975 cell adhesion to matrix” value [5] was “dose-dependently inhibits”.
